Assay results: patent US10646478B2, “Methods for treatment of melanoma” (CHILDREN'S MEDICAL CENTER CORPORATION, priority 2011, dated 2020)

Tests used:
[1] = test system: neural crest stem cells (NCSCs) from fetal (E14.5) rat gut; assay: Rat neural crest stem cell assays (self-renewal, colony size, differentiation); assay type: cell-based
Protocol: Enteric NCSCs from the fetal (E14.5) rat gut were isolated using flow cytometry to select the 1%-2% of cells expressing the highest levels p75 and α4 integrin as previously described^9. Cells were plated at clonal density in two wells/treatment and cultured in self-renewal medium for 8 days in LEF, A771726 or the vehicle (DMSO) followed by differentiation medium+/−LEF, A771726 or DMSO for 6 days. Cultures were fixed in 4% PFA then stained with antibodies against peripherin, GFAP, and SMA to identify neurons (N), glia (G) and myofibroblasts (M) respectively (U=unstained cells). A total of 3 to 4 independent experiments were performed, and differences measured by ANOVA followed by Bonferonni posthoc comparison. Self-renewal medium contains: DMEM-low glucose, 15% Chick Embryo Extract (CEE), Penn/Strep (P/S), 1% N2 supplement, 2% B27 supplement, 110 nM Retinoic Acid, 50 μM 2-mercaptoethanol 20 ng/ml bFGF, and 20 ng/ml IGF-1. Differentiation medium is the same except it contains 1% CEE, 10 ng/ml bFGF and no IGF-1. Differences between groups were calculated using ANOVA followed by posthoc Sheffe.
Dissociated fetal rat gut cells were plated at clonal density in non-adherent conditions in self-renewal medium with LEF, a77 or DMSO for 10 days^10. Three to five primary neurospheres per treatment were individually re-plated in adherent conditions with LEF, a77 or DMSO and after three days were dissociated into a single cell suspension using trypsin and collagenase IV. Dissociated cells from each neurosphere were re-plated in non-adherent conditions without LEF or a77 and after 10 days, the number of secondary neurospheres were counted and compared. To assess the number of multipotent primary and secondary neurospheres, a subset of neurospheres were plated adherently for 8 days in self-renewal medium followed by 6 days in differentiation medium. Cultures were fixed in 4% PFA and stained with antibodies against peripherin, GFAP, and SMA to identify neurons (N), glia (G) and myofibroblasts (M) respectively. A total of 5 independent experiments were analyzed, and the number of multipotent secondary neurospheres on a given day are normalized to the DMSO control wells, and differences calculated by ANOVA.

[2] = test system: crestin+ neural crest progenitors; assay: In situ hybridization (ISH) for crestin in zebrafish embryos (chemical screen for suppressors of neural crest development); assay type: in vivo; conditions: for rescue of neural crest population (crestin ISH): in the presence of leflunomide, A771726 or DH #1
Protocol: The screen was performed essentially as previously described^31. In brief, WT embryos were collected, staged and then plated at a density of 10 embryos per well in a […] tissue culture plate in 200 ul of E3 water. At 50% epiboly, 100 ul of a 3× chemical stock was added to each well using a Hamilton liquid handling robot, yielding a final 1× concentration. For the majority of the chemicals in the library, this yielded a concentration of ˜33 uM. The libraries used were the BIOMOL 480, Sigma LOPAC 1280, and selected additional compounds obtained through the Children's Hospital Boston Chemical Screening facility. Compounds known to affect pigmentation in Xenopus were obtained from a screen previously described^32, 33. After treatment, embryos were rinsed in E3 water, pronase treated to remove chorions, washed 4× in E3 and 1× in PBT, and then fixed in 4% PFA for 24 hours. Fixed embryos were changed to 100% methanol 24 h later, and kept until the time of ISH.
Embryos underwent automated ISH using a Biolane HTI robot with a crestin riboprobe as previously described^31. All wells were manually scored by eye, assigning a score within a range of 1 (no crestin staining) to 3 (no change in crestin) to 5 (marked increase in crestin). Note was also taken of chemicals that affected migratory patterns in both A-P and D-V directions, and overall morphology. […] All hits were validated in larger, independent clutches of 100-200 embryos using chemicals obtained from independent suppliers.

human DHODH = human DHODH (Homo sapiens, UniProt Q02127); assay: In vitro DHODH assay (DCIP reduction), human enzyme; assay type: biochemical; conditions: FIG. 11
Chain of human DHODH (Q02127 whole entry): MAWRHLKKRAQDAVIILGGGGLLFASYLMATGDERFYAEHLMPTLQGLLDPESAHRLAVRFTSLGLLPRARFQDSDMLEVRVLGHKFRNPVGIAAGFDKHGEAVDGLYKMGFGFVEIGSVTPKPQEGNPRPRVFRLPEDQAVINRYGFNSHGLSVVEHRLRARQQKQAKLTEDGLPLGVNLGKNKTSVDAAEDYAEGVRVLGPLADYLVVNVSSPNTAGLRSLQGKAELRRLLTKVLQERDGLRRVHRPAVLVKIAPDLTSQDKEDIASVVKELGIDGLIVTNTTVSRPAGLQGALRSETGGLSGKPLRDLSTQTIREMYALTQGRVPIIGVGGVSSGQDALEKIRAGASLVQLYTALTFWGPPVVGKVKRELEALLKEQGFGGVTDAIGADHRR
Protocol: (§1) The DHODH activity assay monitored the reduction of 2,6-dichloroindophenol (DCIP) and was conducted in 50 μl of 100 mM HEPES (pH 8.0) containing 150 mM NaCl, 5% glycerol, 0.05% Triton X-100, 175 μM L-DHO, 18 μM decylubiquinone (CoQD), and 95 μM DCIP, arrayed in a 384-well format. The concentrations of enzymes used were as follows: P. falciparum 12.5 nM, human 7 nM. Following a 20 minute incubation at room temperature the absorbance was measured at 600 nm (Envision, PerkinElmer).

P. falciparum DHODH = biological target: T1, P. falciparum DHODH (Plasmodium falciparum, UniProt Q08210); assay: In vitro DHODH assay (DCIP reduction), malarial enzyme; assay type: biochemical; conditions: FIG. 11
T1 sequence (Q08210 24-569): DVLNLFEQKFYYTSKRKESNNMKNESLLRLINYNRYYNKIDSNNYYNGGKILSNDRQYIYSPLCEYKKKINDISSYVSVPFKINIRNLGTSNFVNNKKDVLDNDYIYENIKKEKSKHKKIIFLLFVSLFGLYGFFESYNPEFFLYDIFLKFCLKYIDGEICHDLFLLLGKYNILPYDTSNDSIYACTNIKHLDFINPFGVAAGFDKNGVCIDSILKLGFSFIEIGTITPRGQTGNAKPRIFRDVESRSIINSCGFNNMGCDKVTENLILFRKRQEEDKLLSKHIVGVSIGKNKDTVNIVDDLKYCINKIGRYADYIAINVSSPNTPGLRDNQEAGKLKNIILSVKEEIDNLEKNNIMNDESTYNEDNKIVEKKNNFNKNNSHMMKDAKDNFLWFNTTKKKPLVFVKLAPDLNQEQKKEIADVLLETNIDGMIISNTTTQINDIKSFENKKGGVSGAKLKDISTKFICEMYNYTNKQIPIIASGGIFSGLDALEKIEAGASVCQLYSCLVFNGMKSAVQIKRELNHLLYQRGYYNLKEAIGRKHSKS
Protocol: as §1

ventral melanocytes = assay: Ventral melanocytes in Xenopus embryos; assay type: in vivo; conditions: stage 38 embryos
[3] = test system: human melanoma cell lines (A375, Hs.294t, RPMI7951); assay: In vitro melanoma proliferation assay (CellTiterGlo); assay type: cell-based; conditions: RPMI7951 (BRAFV600E)
Protocol: (§2) Human melanoma cell lines (A375, RPMI7951, Hs.294T, MAMLE-3M) were obtained from the American Type Culture Collection. The 8988 cell line was provided by Alec Kimmelman at Dana Farber, and the PANC1 and MDA-231-MB lines were provided by Rania Hartouche at Harvard. Cells were cultured in DMEM/10% FCS at 37 C, 5% CO2. For proliferation assays, 96-well clear bottom plates were used to plate cells at a density of 5,000 cells/well (RPMI7951 and A375) or 10,000 cells/well (MAMLE-3M-3M and Hs.294T) in 100 ul containing indicated concentrations of A771726 or PLX4720 or DMSO. All conditions were tested in triplicate. Media was changed at day 2, and proliferation rate was measured at day 4 using the CellTiterGlo assay kit (Promega). All values are expressed are the % of luciferase relative to the DMSO control well. Differences between groups were statistically analyzed using a generalized linear ANOVA model taking into account factors of PLX4720, A771726 and dose. IC50's were calculated using a log-logistic model.

[4] = test system: pancreatic cancer (8988, PANC1) and breast cancer (MDA-MD-231) cell lines; assay: In vitro proliferation assay in non-melanoma cell lines; assay type: cell-based, human; conditions: BRAF WT; 8988, PANC1, MDA-MD-231
Protocol: as §2

A375 melanoma cells = assay: In vivo xenograft study of A375 cells in nude mice; design: species or system mouse; conditions: daily i.p.; PLX4720 2.5 mg/kg, Leflunomide 7.5 mg/kg; DMSO 7.4+/−1.3-fold
Protocol: The A375 cell line was chosen for xenografts based on prior experience with PLX4720 in this line. Cells were grown to 60-70% confluence, trypsinized and 3.5×10^5 cells were transplanted into the right flank of nude mice in a volume of 200 ul. […] Tumors were measured with digital calipers on day 4, 7 and 12 and growth rate was compared to the tumor size on day 0. Growth rates were compared between DMSO, PLX, LEF or […] using ANOVA with repeated measures to identify significant interactions. For the day 12 data, differences between the groups were compared using ANOVA followed by posthoc Tukey's least-squared difference.

C/C(O)=C(\C#N)C(=O)Nc1ccc(C(F)(F)F)cc1 [A771726, teriflunomide]
colony size reduced compared to controls [1]: 24% | number of self-renewing NCSCs from primary stem cell colonies [1]: 35+/−6.16 % of controls

O=C(O)c1cc(-c2ccc(-c3ccc(-c4cc(C(=O)O)c5cc(Cl)ccc5n4)cc3)cc2)nc2ccc(Cl)cc12 [NSC210627]
crestin expression by ISH ([2]; zebrafish embryos, 50% epiboly to 24 hpf): strongly abrogated expression of crestin | inhibition of purified human DHODH (human DHODH): strong inhibition of both enzymes, at lower concentrations in the human versus malarial forms | inhibition of purified malarial DHODH (P. falciparum DHODH): strong inhibition of both enzymes | ventral melanocytes in Xenopus embryos (ventral melanocytes): reduction of ventral melanocytes

CCCS(=O)(=O)Nc1ccc(F)c(C(=O)c2c[nH]c3ncc(Cl)cc23)c1F [PLX4720]
sensitivity of RPMI7951 to the BRAF inhibitor [3]: significantly less sensitive than the other tested cell lines | proliferation of non-melanoma cell lines [4]: no effect | tumor growth at 12 days post-treatment (A375 melanoma cells): 5.7+/−0.16 fold

C[C@@]1(CO)[C@H](O)CC[C@@]2(C)[C@H]1CC[C@H]1C[C@@H]3C[C@@]12CC[C@]3(O)CO [aphidicolin]
rescue of neural crest population (crestin ISH) [2]: rescue of the neural crest population

CCCCCCCCCCC1=C(C)C(=O)C(OC)=C(OC)C1=O [decylubiquinone]
rescue of neural crest population (crestin ISH) [2]: rescue of the neural crest population

CC(=O)[C@H]1CC[C@H]2[C@@H]3CCC4=CC(=O)CC[C@]4(C)[C@H]3CC[C@]12C [progesterone]
rescue of neural crest population (crestin ISH) [2]: rescue of the neural crest population
